Laboratory results from PubChem BioAssay (NCI).
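Each compound was tested at five concentrations against cells in 96-well plates for 48 hours. Abbreviation: GI50, concentration required for 50% inhibition of growth. The concentration for full growth arrest is given as TGI.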

Experiments:
Assay in all cases: NCI-60 cell line screen, 48 h
[1] = system: A498 renal
[2] = system: CAKI-1 renal
[3] = system: EKVX NSCLC
[4] = system: HCT-116 colon
[5] = system: HOP-62 NSCLC
[6] = system: HOP-92 NSCLC
[7] = system: NCI-H460 lung
[8] = system: OVCAR-8 ovarian
[9] = system: SK-MEL-2 melanoma
[10] = system: SK-MEL-28 melanoma

For `Clc1ccc(CCNC2(c3cc4ccccc4s3)CCCCC2)cc1Cl`, the TGI [1] was 39.9 µM, the TGI [2] was > 100 µM and the TGI [3] was 81.3 µM. The TGI [4] was 29.3 µM, the TGI [5] was 84.3 µM and the TGI [6] was 29.8 µM. For the same compound, the TGI [7] was 40.3 µM, the TGI [8] was > 100 µM and the TGI [9] was 36.8 µM. For the same compound, the TGI [10] was 87.2 µM.
In the case of `C/C=C1/CN2CCC34c5ccccc5N(C)C23C2CC1C4(C(=O)OC)C(OC(C)=O)O2` (stereo not given), the TGI [1] is reported as > 100 µM, the TGI [2] is reported as > 100 µM and the TGI [3] is reported as > 100 µM. The TGI [4] was > 100 µM, the TGI [5] was > 100 µM and the TGI [6] was > 100 µM. The TGI [7] was > 100 µM, the TGI [8] was > 100 µM and the TGI [9] was > 100 µM. The TGI [10] was > 100 µM.
In the case of `COc1ccccc1NC(=S)N=Nc1c(O)[nH]c2ccccc12`, the TGI [1] is reported as > 100 µM, the TGI [2] is reported as > 100 µM and the TGI [3] is reported as > 100 µM. For the same compound, the TGI [4] was > 100 µM, the TGI [5] was > 100 µM and the TGI [6] was > 100 µM. For the same compound, the TGI [7] was > 100 µM, the TGI [8] was > 100 µM and the TGI [9] was > 100 µM. It also gave a TGI [10] of 23.6 µM.
With `COC(=O)Nc1nc2ccc(S(=O)(=O)Nc3ccccn3)cc2[nH]1` the TGI [1] was > 100 µM, the TGI [2] was > 100 µM and the TGI [3] was > 100 µM. The TGI [4] was > 100 µM, the TGI [5] was > 100 µM and the TGI [6] was > 100 µM. For the same compound, the TGI [7] was > 100 µM, the TGI [8] was > 100 µM and the TGI [9] was > 100 µM. For the same compound, the TGI [10] was 56.2 µM.
In the case of `O=C(c1ccccc1)N1CCN(C(=S)NC2CCCCC2)C1=S`, the TGI [1] is reported as 43.3 µM, the TGI [2] is reported as 62.4 µM and the TGI [3] is reported as 38.3 µM. The TGI [4] was 32.6 µM, the TGI [5] was 37.3 µM and the TGI [6] was 36.7 µM. It also gave a TGI [7] of 49.5 µM, a TGI [8] of 32.9 µM and a TGI [9] of 14.9 µM. It also gave a TGI [10] of 31.2 µM.
With `COc1cccc2c1C(=O)c1c(O)c3c(c(O)c1C2=O)C[C@@](O)(C(C)=O)CC3S(=O)(=O)O` (stereo not given in full) the TGI [1] was > 100 µM, the TGI [2] was > 100 µM and the TGI [3] was > 100 µM. The TGI [4] was > 100 µM, the TGI [5] was > 100 µM and the TGI [6] was > 100 µM. The TGI [7] was > 100 µM, the TGI [8] was > 100 µM and the TGI [9] was > 100 µM. For the same compound, the TGI [10] was > 100 µM.
`COC1=C[C@]2(CCC(=O)O2)[C@@H]2Cc3ccccc3[C@H](O)[C@@H]2C1=O` was tested, and the TGI [1] was > 100 µM, the TGI [2] was > 100 µM and the TGI [3] was > 100 µM. The TGI [4] was > 100 µM, the TGI [5] was > 100 µM and the TGI [6] was > 100 µM. For the same compound, the TGI [7] was > 100 µM, the TGI [8] was > 100 µM and the TGI [9] was 96.2 µM. For the same compound, the TGI [10] was > 100 µM.
`COC(=O)CNC(=O)C(Cc1ccccc1)NC(=O)c1ccc(-c2ccc(Cl)cc2Cl)o1` (stereo not given) was tested, and the TGI [1] was 38.8 µM, the TGI [2] was 77.6 µM and the TGI [3] was 78.6 µM. For the same compound, the TGI [4] was 43.2 µM, the TGI [5] was 78.8 µM and the TGI [6] was 39.1 µM. For the same compound, the TGI [7] was 40.3 µM, the TGI [8] was > 100 µM and the TGI [9] was 96.6 µM. For the same compound, the TGI [10] was > 100 µM.
With `COC(=O)c1c(O)ccc2c1c1cc3ccccc3cc1n2Cc1cc(OC)cc(OC)c1` the TGI [1] was > 34.3 µM, the TGI [2] was > 28.4 µM and the TGI [3] was > 100 µM. For the same compound, the TGI [4] was > 100 µM, the TGI [5] was > 100 µM and the TGI [6] was > 100 µM. For the same compound, the TGI [7] was > 100 µM, the TGI [8] was > 100 µM and the TGI [9] was 24.6 µM. For the same compound, the TGI [10] was > 100 µM.
With `Cc1c(C(=O)O)n2c(=S)[nH]nc2c2ccccc12` the TGI [1] was > 100 µM, the TGI [2] was > 100 µM and the TGI [3] was > 100 µM. For the same compound, the TGI [4] was > 100 µM, the TGI [5] was > 100 µM and the TGI [6] was > 100 µM. For the same compound, the TGI [7] was > 100 µM, the TGI [8] was > 100 µM and the TGI [9] was > 100 µM. For the same compound, the TGI [10] was > 100 µM.
For `O=C1c2ccccc2C(=O)N1n1c(Cc2ccc(Cl)cc2)n[nH]c1=O`, the TGI [1] was > 100 µM, the TGI [2] was > 100 µM and the TGI [3] was > 100 µM. The TGI [4] was > 100 µM, the TGI [5] was > 100 µM and the TGI [6] was > 100 µM. For the same compound, the TGI [7] was > 100 µM, the TGI [8] was > 100 µM and the TGI [9] was > 100 µM. For the same compound, the TGI [10] was > 100 µM.
In the case of `N[C@H]1c2c(Br)sc(Br)c2C(=O)[C@H]1O`, the TGI [1] is reported as > 100 µM, the TGI [2] is reported as 16.7 µM and the TGI [3] is reported as 30.2 µM. It also gave a TGI [4] of 34.9 µM, a TGI [5] of 36.5 µM and a TGI [6] of 38.9 µM. The TGI [7] was 35.6 µM, the TGI [8] was 43.7 µM and the TGI [9] was 69.9 µM. For the same compound, the TGI [10] was 26.7 µM.
`COc1ccc2c(c1)N(Cc1ccc(Cl)cc1)CCC2N1CCCC1=O` (stereo not given) showed a GI50 [1] of 3.22 µM, a TGI [1] of 49.7 µM and a GI50 [2] of 3.49 µM. It also gave a TGI [2] of 16.7 µM, a GI50 [3] of 3.39 µM and a TGI [3] of 19.1 µM. For the same compound, the GI50 [4] was 5.24 µM, the TGI [4] was > 100 µM and the GI50 [5] was 4.27 µM. It also gave a TGI [5] of 42.7 µM, a GI50 [6] of 2.75 µM and a TGI [6] of 20.5 µM. For the same compound, the GI50 [7] was 4.22 µM, the TGI [7] was > 100 µM and the GI50 [8] was 4.6 µM. For the same compound, the TGI [8] was 57.3 µM, the GI50 [9] was 6 µM and the TGI [9] was 28.8 µM. It also gave a GI50 [10] of 8.28 µM and a TGI [10] of 45.6 µM.
In the case of `CN(C)Cc1c(O)ccc2c1c1c(n2C)C(=O)c2ccccc2C1=O`, the TGI [1] is reported as 14.7 µM, the TGI [2] is reported as 70.3 µM and the TGI [3] is reported as > 100 µM. For the same compound, the TGI [4] was > 100 µM, the TGI [5] was > 100 µM and the TGI [6] was > 100 µM. For the same compound, the TGI [7] was > 100 µM, the TGI [8] was > 100 µM and the TGI [9] was 24.8 µM. For the same compound, the TGI [10] was 20 µM.
With `COc1ccc2nc3c([N+](=O)[O-])ccc(NCCN(C)C)c3c(N)c2c1` the TGI [1] was 4.31 µM, the TGI [2] was 3.42 µM and the TGI [3] was 3.79 µM. It also gave a TGI [4] of 0.296 µM, a TGI [5] of 3.65 µM and a TGI [6] of 2.54 µM. For the same compound, the TGI [7] was 2.95 µM, the TGI [8] was 4.33 µM and the TGI [9] was 4.76 µM. For the same compound, the TGI [10] was 4.16 µM.
With `COc1cc(C2c3cc4c(cc3OC(NNc3ccccc3)C2C)OCO4)cc(OC)c1OC` (stereo not given) the TGI [1] was 6.76 µM, the TGI [2] was > 73 µM and the TGI [3] was 21.1 µM. It also gave a TGI [4] of 13.9 µM, a TGI [5] of 10.4 µM and a TGI [6] of 52.1 µM. For the same compound, the TGI [7] was 16.4 µM, the TGI [8] was > 38.1 µM and the TGI [9] was 38.6 µM. For the same compound, the TGI [10] was > 100 µM.
